For one experiment, the target named is T1, PTP-1B (Homo sapiens, UniProt P18031).
T1 construct: known to encode a 321 amino acid fragment containing the PTP-1B catalytic domain and having PTPase activity; made in house; host or cells: E. coli DH5α, plasmid pGEX-3X-PTP-1B
T1 sequence (P18031 3-277 limits assumed): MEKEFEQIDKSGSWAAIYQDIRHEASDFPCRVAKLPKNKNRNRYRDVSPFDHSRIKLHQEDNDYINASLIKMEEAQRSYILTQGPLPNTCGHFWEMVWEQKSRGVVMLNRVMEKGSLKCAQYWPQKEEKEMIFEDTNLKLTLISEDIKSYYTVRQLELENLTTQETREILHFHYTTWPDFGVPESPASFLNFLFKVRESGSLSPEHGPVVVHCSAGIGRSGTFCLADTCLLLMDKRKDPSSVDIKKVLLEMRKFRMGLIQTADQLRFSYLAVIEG
Nature of the experiment: In vitro PTPase inhibition assay (pNPP, colorimetric), PTP-1B. It counts as biochemical. The following applies: Table 9; read-out: IC50 values against PTP1B. The procedure:
PTP-1B enzymatic activity of samples was assayed in microtiter plates as follows. The protein concentration of the PTP-1B enzyme preparation was determined using the Bio-Rad Protein Assay kit (Bio-Rad, Hercules Calif.). […] Reactions were mixed gently and incubated at 37° C. for 60 minutes. Enzymatic cleavage of phosphate from pNPP (a tyrosine phosphate analog) is marked by a colorimetric change in this substrate. See, e.g., Imbert et al., Biochem J., 297:163-173 (1994); Ghosh and Miller, Biochem. Biophys. Res. […] Zanke et al., Eur. J. […] To determine the enzymatic activity, absorbance readings of the reactions were measured at 405 nm using a Molecular Devices Thermomax Plate Reader (Menlo Park Calif.). […] Purified phosphatase was added to the reaction mixtures to begin the reactions; the reactions were incubated at 37° C. for 60 min. […] (for PTP-1C and PTPα assays), stopped, and colorimetrically analyzed as described above. […] First, absorbance readings from the negative control reactions were treated as a baseline and subtracted from the absorbance readings of the experimental reactions. Then, for each reaction, a percent inhibition was calculated using the following formula: […] For each inhibitor compound tested, an IC50 concentration was calculated from a best-fit computer analysis of the calculated percent inhibition for the various dilutions of the compound. PTP-1B enzymatic activity of samples was assayed in microtiter plates as follows. The protein concentration of the PTP-1B enzyme preparation was determined using the Bio-Rad Protein Assay kit (Bio-Rad, Hercules Calif.). […] Reactions were mixed gently and incubated at 37° C. for 60 minutes. Enzymatic cleavage of phosphate from pNPP (a tyrosine phosphate analog) is marked by a colorimetric change in this substrate. See, e.g., Imbert et al., Biochem J., 297:163-173 (1994); Ghosh and Miller, Biochem. Biophys. Res. […] Zanke et al., Eur. […] To determine the enzymatic activity, absorbance readings of the reactions were measured at 405 nm using a Molecular Devices Thermomax Plate Reader (Menlo Park Calif.). […] Purified phosphatase was added to the reaction mixtures to begin the reactions; the reactions were incubated at 37° C. for 60 min. […] (for PTP-1C and PTPα assays), stopped, and calorimetrically analyzed as described above. […] First, absorbance readings from the negative control reactions were treated as a baseline and subtracted from the absorbance readings of the experimental reactions. Then, for each reaction, a percent inhibition was calculated using the following formula: […] For each inhibitor compound tested, an IC50 concentration was calculated from a best-fit computer analysis of the calculated percent inhibition for the various dilutions of the compound.

A further experiment deals with T2, CD45 (Homo sapiens, UniProt P08575).
T2 construct: The PCR reaction product (2127 bp) was digested with Sma I (New England Biolabs, Beverly Mass.) to yield a 2110 bp product; made in house; host or cells: E. coli DH5α, plasmid pET24C-CD45
T2 sequence (P08575 599-1306 limits assumed): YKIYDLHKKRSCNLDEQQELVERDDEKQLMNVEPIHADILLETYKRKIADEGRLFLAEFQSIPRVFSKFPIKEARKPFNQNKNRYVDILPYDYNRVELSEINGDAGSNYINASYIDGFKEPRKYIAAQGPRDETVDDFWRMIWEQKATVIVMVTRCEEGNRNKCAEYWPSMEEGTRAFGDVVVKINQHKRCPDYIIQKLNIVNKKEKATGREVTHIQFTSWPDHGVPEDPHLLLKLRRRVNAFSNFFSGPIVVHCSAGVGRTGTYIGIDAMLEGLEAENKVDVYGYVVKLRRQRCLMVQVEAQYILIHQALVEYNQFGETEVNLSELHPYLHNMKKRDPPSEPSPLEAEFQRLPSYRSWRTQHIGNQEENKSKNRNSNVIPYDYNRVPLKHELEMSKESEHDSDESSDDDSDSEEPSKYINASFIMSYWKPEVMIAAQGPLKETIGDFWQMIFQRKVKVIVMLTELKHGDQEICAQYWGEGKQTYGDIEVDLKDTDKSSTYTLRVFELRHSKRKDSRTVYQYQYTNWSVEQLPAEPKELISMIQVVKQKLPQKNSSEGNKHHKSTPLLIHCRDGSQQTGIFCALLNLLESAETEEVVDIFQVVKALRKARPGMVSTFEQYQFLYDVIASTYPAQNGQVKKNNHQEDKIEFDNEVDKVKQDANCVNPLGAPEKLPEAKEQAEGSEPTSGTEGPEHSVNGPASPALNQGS
Nature of the experiment: In vitro PTPase inhibition assay (pNPP, colorimetric), CD45. It counts as biochemical. The following applies: Table 9; read-out: IC50 values against CD45. The protocol: CD45 enzymatic activity of samples was assayed in microtiter plates as follows. […] Louis Mo.), and 80 ul of activity assay buffer (100 mM sodium acetate, pH 6.0, 1 mM EDTA, 0.1% Triton X-100, 15 mM bME). Reactions were mixed gently and incubated at 37° C. for 60 minutes. […] To determine the enzymatic activity, absorbance readings of the reactions were measured at 405 nm using a Molecular Devices Thermomax Plate Reader (Menlo Park Calif.). […] Purified phosphatase was added to the reaction mixtures to begin the reactions; the reactions were incubated at 37° C. for 60 min. […] (for PTP-1C and PTPα assays), stopped, and colorimetrically analyzed as described above. […] First, absorbance readings from the negative control reactions were treated as a baseline and subtracted from the absorbance readings of the experimental reactions. Then, for each reaction, a percent inhibition was calculated using the following formula: […] For each inhibitor compound tested, an IC50 concentration was calculated from a best-fit computer analysis of the calculated percent inhibition for the various dilutions of the compound. CD45 enzymatic activity of samples was assayed in microtiter plates as follows. […] Louis Mo.), and 80 ul of activity assay buffer (100 mM sodium acetate, pH 6.0, 1 mM EDTA, 0. 1% Triton X-100, 15 mM bME). Reactions were mixed gently and incubated at 37° C. for 60 minutes. […] To determine the enzymatic activity, absorbance readings of the reactions were measured at 405 nm using a Molecular Devices Thermomax Plate Reader (Menlo Park Calif.). […] Purified phosphatase was added to the reaction mixtures to begin the reactions; the reactions were incubated at 37° C. for 60 min. […] (for PTP-1C and PTPα assays), stopped, and calorimetrically analyzed as described above. […] First, absorbance readings from the negative control reactions were treated as a baseline and subtracted from the absorbance readings of the experimental reactions. Then, for each reaction, a percent inhibition was calculated using the following formula: […] For each inhibitor compound tested, an IC50 concentration was calculated from a best-fit computer analysis of the calculated percent inhibition for the various dilutions of the compound.

For orientation: IC50 means the concentration that gives 50% inhibition. On to `O=C(O)/C=C/c1ccc(-c2nc(C(=O)OCc3ccccc3)c(-c3ccc(/C=C/C(=O)O)cc3)[nH]2)cc1` [Compound 136], for which the IC50 was determined as 0.7 µM at PTP-1B and 8 µM on CD45.
The corresponding values for `O=C(O)/C=C/c1ccc(C(=O)C(=O)c2ccc(/C=C/C(=O)O)cc2)cc1` [Compound 9] are 0.37 µM and 3.9 µM.
The corresponding values for `COc1cc(OC)c(OC)c(-c2nc(-c3ccc(/C=C/C(=O)O)cc3)c(-c3ccc(/C=C/C(=O)O)cc3)[nH]2)c1` [Compound 72] are 0.52 µM and 5.5 µM.
As to `O=C(O)/C=C/c1ccc(-c2nc(-c3cc(F)cc(F)c3)[nH]c2-c2ccc(/C=C/C(=O)O)cc2)cc1` [Compound 65], the IC50 worked out at 1.3 µM at PTP-1B and 1.4 µM on CD45.
Regarding `COc1ccc(-c2nc(-c3ccc(/C=C/C(=O)O)cc3)c(-c3ccc(/C=C/C(=O)O)cc3)s2)cc1` [Compound 168], on PTP-1B, the IC50 is 3 µM.
The same measure, in the same setting: under `COC(=O)CCCCC(=O)OC(c1ccc(/C=C/C(=O)O)cc1)C(O)c1ccc(/C=C/C(=O)O)cc1` (stereo not shown) [Compound 29] stands 0.8 µM.
In the case of `COc1cccc(-c2nc(-c3ccc(/C=C/C(=O)O)cc3)c(-c3ccc(/C=C/C(=O)O)cc3)[nH]2)c1O` [Compound 69], the IC50 on PTP-1B turned out to be 0.41 µM; on CD45, 1.9 µM.
The corresponding values for `O=C(O)/C=C/c1ccc(-c2nc[nH]c2-c2ccc(/C=C/C(=O)O)cc2)cc1` [Compound 55] are 0.1 µM and 0.56 µM.
The corresponding values for `O=C(O)/C=C/c1ccc(-c2[nH]cnc2C(=O)OCc2ccccc2)cc1` [Compound 134] are 3.4 µM and 20 µM.
The corresponding values for `CCCCn1cnc(-c2ccc(/C=C/C(=O)O)cc2)c1-c1ccc(/C=C/C(=O)O)cc1` [Compound 94] are 0.7 µM and 7 µM.
As to `O=C(O)/C=C/c1ccc(-c2nc(-c3cc(Cl)cc(Cl)c3Cl)[nH]c2-c2ccc(/C=C/C(=O)O)cc2)cc1` [Compound 82], the results for the IC50 at PTP-1B and on CD45 were 11.9 µM and 12.8 µM, respectively.
The corresponding values for `O=C(O)/C=C/c1ccc(-c2nc3cccnc3nc2-c2ccc(/C=C/C(=O)O)cc2)cc1` [Compound 160] are 0.98 µM and 1.52 µM.
With `COc1ccc(C(=O)OC(c2ccc(/C=C/C(=O)O)cc2)C(OC(=O)c2ccc(OC)cc2)c2ccc(/C=C/C(=O)O)cc2)cc1` (stereo not shown) [Compound 162], on PTP-1B, the concentration for half-maximal inhibition (IC50) stood at 1.8 µM.
Take `O=C(O)/C=C/c1ccc(-c2nc(-c3ccccc3[N+](=O)[O-])[nH]c2-c2ccc(/C=C/C(=O)O)cc2)cc1` [Compound 57]: the figures for the IC50 at PTP-1B and at CD45 were 0.25 µM and 1 µM, respectively.
The corresponding values for `O=C(O)/C=C/c1ccc(-c2nc(-c3c(F)c(F)c(F)c(F)c3F)[nH]c2-c2ccc(/C=C/C(=O)O)cc2)cc1` [Compound 84] are 1.2 µM and 2.7 µM.
The corresponding values for `COc1cccc(-c2nc(-c3ccc(/C=C/C(=O)O)cc3)c(-c3ccc(/C=C/C(=O)O)cc3)[nH]2)c1[N+](=O)[O-]` [Compound 59] are 0.25 µM and 0.35 µM.
The corresponding values for `O=C(O)/C=C/c1ccc(-c2nc(-c3ccc4ccc5cccc6ccc3c4c56)[nH]c2-c2ccc(/C=C/C(=O)O)cc2)cc1` [Compound 80] are 10 µM and 20 µM.
Consider `O=C(O)/C=C/c1ccc(C(O)C(O)c2ccc(/C=C/C(=O)O)cc2)cc1` (stereo not shown) [Compound 23], for which, at PTP-1B, the IC50 came out at 0.27 µM.
As for `COc1ccc(C(=O)OC(C(=O)c2ccc(/C=C/C(=O)O)cc2)c2ccc(/C=C/C(=O)O)cc2)cc1` (stereo not shown) [Compound 27], the IC50 on PTP-1B is 0.5 µM.
Turning to `O=C(O)/C=C/c1ccc(-c2nc3ccc([N+](=O)[O-])cc3nc2-c2ccc(/C=C/C(=O)O)cc2)cc1` [Compound 152], the IC50 at PTP-1B is 0.85 µM; at CD45, 1.2 µM.
The corresponding values for `O=C(O)/C=C/c1ccc(-c2nc(-c3cc4ccccc4c4ccccc34)[nH]c2-c2ccc(/C=C/C(=O)O)cc2)cc1` [Compound 81] are 26 µM and 19 µM.
The corresponding values for `COc1ccc(-c2nc(-c3ccc(/C=C/C(=O)O)cc3)c(-c3ccc(/C=C/C(=O)O)cc3)[nH]2)cc1F` [Compound 83] are 1.3 µM and 1.5 µM.
The corresponding values for `COc1ccc(-c2nc(-c3cc(/C=C/C(=O)O)ccc3O)c(-c3cc(/C=C/C(=O)O)ccc3O)[nH]2)cc1` [Compound 91] are 25.9 µM and greater than 100 µM.
Consider `CCCCCCC(OC(=O)c1ccc(/C=C/C(=O)O)cc1)C(=O)NCC(=O)OCC` (stereo not shown) [Compound 32], for which the IC50 on PTP-1B was 1.8 µM.
On the same count and under the same terms, under `CCCCNC(=O)C(OC(=O)c1ccc(/C=C/C(=O)O)cc1)C(=O)c1ccc(F)cc1` (stereo not shown) [Compound 144] stands 3 µM; under `COc1ccc(C(=O)OC(c2ccc(/C=C/C(=O)O)cc2)C(O)c2ccc(/C=C/C(=O)O)cc2)cc1` (stereo not shown) [Compound 25], 0.89 µM.
The same measure, in the same setting: under `CCCCNC(=O)c1oc(-c2ccc(/C=C/C(=O)O)cc2)nc1-c1ccc(F)cc1` [Compound 148] stands 9 µM; under `CCCCCCCCNC(=O)/C=C/c1ccc(C(=O)C(=O)c2ccc(/C=C/C(=O)O)cc2)cc1` [Compound 13], 31 µM.

These data come from patent US20020183518A1, “Modulators of proteins with phosphotyrosine recognition units” (ONTOGEN CORPORATION, priority 1995, published 2002).
